Data reported in ChEMBL document CHEMBL1131842, “Synthesis and estrogen receptor binding affinity of a porphyrin-estradiol conjugate for targeted photodynamic therapy of cancer” (Bioorg Med Chem Lett, 1999).

Molecular target: Estrogen receptor (Homo sapiens, UniProt Q92731+P03372)
Experiment: Displacement of [3H]estradiol from estrogen receptor-ligand binding domain
Assay type: protein assay

EC50: 274 nM
SMILES: C[C@]12CC(CCOC(=O)CCCNC(=O)c3ccc(-c4c5ccc([nH]5)c(-c5ccccc5)c5nc(c(-c6ccccc6)c6nc(c(-c7ccccc7)c7ccc4[nH]7)C=C6)C=C5)cc3)[C@@H]3c4ccc(O)cc4CC[C@H]3[C@@H]1CCC2O (stereo partly specified)
